Test results from patent publication US10357486B2, “Treatment of cognitive impairment with PDE4 inhibitor” (Universiteit Maastricht, priority 2013, dated 2019).
“Also recorded” adds a separate entry of the source. Marks after values point to notes of the source that are not given here.

Experiments:
[1] = system: spatial memory in male C57BL/6NCrl mice; experiment: Object Location Task (OLT), 24-hour retention interval; assay type: in vivo; conditions: for d2 index, discrimination index between the new and familiar objects for T2: given 3 hours after T1, T2 after 24 h, mean (SEM)
From the text: The objective of this study was to evaluate the cognitive improvement effects of Roflumilast on spatial memory employing Object Location Task (OLT) in male C57BL/6NCrl mice. Roflumilast was compared with data of the already established PDE4 inhibitor Rolipram in the same model.
Maintenance of Animals Twenty-four 7 month-old male C57BL/6NCrl mice (Charles River, L'Arbresle, France) were used (average body weights: 27.6 g). The animals were kept under a 12/12-hour light/dark cycle (lights on from 07.00 pm to 07.00 am) with free access to food and water. All testing was done between 09.00 am and maximally 06.00 pm.
Preparation of Compounds for Administration Both rolipram (Sigma-Aldrich St. Louis, USA; MW 275.34) and roflumilast (Biocrea, Radebeul, Germany; MW 403.21) were dissolved in dimethylsulfoxide (DMSO) and kept at 4 ° C.; this stock solution was used for further dilutions in 0.5% methylcellulose. Each of rolipram and roflumilast is used in form of its free base. All injected solutions consisted of 0.5% methylcellulose with a fixed DMSO percentages (1.2%) (vehicle).
Object Location Task Studies in Rodents For the Object Location Task (OLT), doses of 0.01 mg/kg, 0.03 mg/kg and 0.1 mg/kg of Rolipram or Roflumilast or vehicle were administered subcutaneously (s.c.). Based on previous findings, PDE4 inhibitor single administration was performed 3 hours after the first trial as this has an optimum effect on object memory performance. The injection volume was 5 μl/g.
The OLT apparatus consisted of a circular arena, 40 cm in diameter. Half of the 40 cm transparent polyvinyl chloride wall was covered from the outside with white paper. Two objects were placed symmetrically about 10 cm away from the wall on the separation line, between the transparent and covered side of the arena. Four different sets of objects were available: (1) a cone made of brass (maximal diameter 6 cm and total height 3.8 cm), (2) a transparent glass bottle (diameter 2.7 cm, height 8.5 cm) filled with sand and water, (3) a massive metal cube (2.5 cm×5 cm×7.5 cm) with two holes (diameter 1.5 cm), and (4) a massive aluminum cube with a tapering top (4.5 cm×4.5 cm×8.5 cm).
A testing session comprised two trials of 4 minutes. Before each trial, mice were placed in an empty Makrolon cage (incubation cage) for the same amount of time as the trial (4 min). During the first trial (T1), two identical objects were placed symmetrically about 10 cm away from the wall on the separation line between the transparent and covered side of the arena. After the first exploration period of 4 min, the mouse was put back in its home cage. Mice then received treatment at 3 hours post T1. Subsequently, after a predetermined delay interval (24h), the mouse was placed in the apparatus for the second trial of 4 min (T2). Two identical objects as in T1 were used; one object was placed in the previously used position, whereas the other was placed in a novel position. The novel position of the object could either be a fixed distance towards the front or a fixed distance towards the back of the arena for both objects. The times spent exploring each object during T1 and T2 were recorded manually using a personal computer. All objects and locations were used in a balanced manner to exclude possible object and/or location preferences. To avoid olfactory cues, the objects were thoroughly cleaned with 70% ethanol after each trial. The testing order of conditions was determined randomly.
Statistical Data Analysis The measurements reflected the time spent by the mice in exploring each object during T1 and T2. The time spent in exploring the two identical samples in T1 were represented by ‘a1’ and ‘a2’, respectively. The time spent in exploring the sample and the new object in T2 were represented by ‘a’ and ‘b’, respectively. From these exploration times the following variables were calculated: e1, e2, and d2 (Table 1). The d2 index is a relative measure of discrimination corrected for exploratory activity. […]

[2] = system: 60 to 80 years old subjects (Impaired Elderly and Healthy Elderly); experiment: Bond-Lader Visual Analogue Scales (BL-VAS) in 60 to 80 years old subjects, interim analysis; assay type: in vivo, human; conditions: low dose (100 mcg); at 45 min
Experimental: The study is conducted according to a double-blind, placebo-controlled, four-period cross-over design. Forty healthy subjects, both male and female within an age range of 60 to 80 years are planned to be included in the study in 2 groups: 1) 20 subjects with a memory performance between 1-2 Standard Deviation below the average for their age, gender, and educated level (Impaired Elderly) and 2) 20 subjects with age (±3 years), gender, and educational level matched (in order to speed up the study matching was stopped after the interim analysis) with an average memory performance between 0.5 Standard Deviation below and 0.5 Standard Deviation above from normative values (Healthy Elderly). Classification in terms of impaired or healthy elderly will be determined by a one-off testing of memory performance using the Rey Verbal Learning Task (Rey A; L'examen psychologique dans les cas d'encephalopathy traumatique 1958 Paris; Presses Universitaire de France; or Van der Elst et al; J Int Neuropsychol Soc 2005, 11 (3), pp 290-302) according to fully standardized procedures as applied in The Maastricht Aging Study (Jolles et al; Maastricht Aging Study; determinants of cognitive aging; Maastricht, The Netherlands, Neuropsych Publishers 1995). […]

O=C(Nc1c(Cl)cncc1Cl)c1ccc(OC(F)F)c(OCC2CC2)c1 [roflumilast, N-(3,5-dichloropyridin-4-yl)-3-cyclopropylmethoxy-4-difluoromethoxybenzamide]
d2 index, discrimination index between the new and familiar objects for T2 ([1]; 0.01 mg/kg s.c.): 0.04 (0.05) | d2 index compared with the vehicle condition (post-hoc Bonferroni t-test) ([1]; 0.03 mg/kg s.c.): differed significantly from the vehicle condition | d2 index, discrimination index between the new and familiar objects for T2 ([1]; 0.03 mg/kg s.c.): 0.34 (0.03) ### | d2 index compared with zero (one-sample t-test) ([1]; 0.03 mg/kg s.c., after twenty-four hours): significantly differed from zero | d2 index, discrimination index between the new and familiar objects for T2 ([1]; 0.1 mg/kg s.c.): 0.00 (0.06) | effect on spatial memory measured by the object location task test ([1]; single subcutaneous administration of 0.01 mg/kg): nearly no effect | effect on spatial memory measured by the object location task test ([1]; single subcutaneous administration of 0.03 mg/kg, 0.03 mg/kg): effective; also recorded: pronounced effect | effect on spatial memory measured by the object location task test ([1]; single subcutaneous administration of 0.1 mg/kg): completely no effect | (subjective) alertness in comparison with placebo, based on BL-VAS scores [2]: significantly higher
